Assay results from patent US7148232B2, “Oxazolo, thiazolo and selenazolo [4,5-c]-quinolin-4-amines and analogs thereof” (3M Innovative Properties Company, priority 1998, dated 2006).

Columns and labels:
interferon (α) = assay: Interferon (α) induction in human cells (in vitro human blood cell system, interferon by bioassay); assay type: cell-based; conditions: human PBM's, 48 hours
Experimental: An in vitro human blood cell system was used to assess interferon induction by compounds of the invention. Activity is based on the measurement of interferon secreted into culture media. Interferon is measured by bioassay.
Whole blood is collected by venipuncture into EDTA vacutainer tubes. Peripheral blood mononuclear cells (PBM's) are separated from whole blood by using either LeucoPREP™ Brand Cell Separation Tubes (available from Becton Dickinson) or Ficoll-Paque® solution (available from Pharmacia LKB Biotechnology Inc, Piscataway, N.J.). […] 200 μL portions of PBM suspension are added to 96 well (flat bottom) sterile tissue culture plates (Becton Dickinson Labware, Lincoln Park, N.J.).
The compounds are solubilized in ethanol, dimethyl sulfoxide or tissue culture water then diluted with tissue culture water, 0.01N sodium hydroxide or 0.01N hydrochloric acid (The choice of solvent will depend on the chemical characteristics of the compound being tested.). Ethanol or DMSO concentration should not exceed a final concentration of 1% for addition to the culture wells. Compounds are initially tested in a concentration range of from about 0.1 μg/mL to about 5 μg/mL. Compounds which show induction at a concentration of 0.5 μg/mL are then tested in a wider concentration range.
The solution of test compound is added in a volume (less than or equal to 50 μL) to the wells containing 200 μL of diluted whole blood or of PBM's in media. Solvent and/or media is added to control wells (wells with no test compound) and as needed to adjust the final volume of each well to 250 μL. The plates are covered with plastic lids, vortexed gently and then incubated for 48 hours at 37° C. with a 5% carbon dioxide atmosphere.
Following incubation, the plates are covered with parafilm and then centrifuged at 1000 rpm for 10 to 15 minutes at 4° C. in a Damon IEC Model CRU-5000 centrifuge. Media (about 200 μL) is removed from 4 to 8 wells and pooled into 2 mL sterile freezing vials. Samples are maintained at −70° C. until analysis.
Interferon is determined by bioassay using A549 human lung carcinoma cells challenged with encephalomyocarditis. The details of the bioassay method have been described by G. L. Brennan and L. H. Kronenberg in “Automated Bioassay of Interferons in Micro-test Plates”, Biotechniques, June/Jul. […] The incubated cells are infected with an inoculum of encephalomyocarditis virus. The infected cells are incubated for an additional period at 37° C. before quantifying for viral cytopathic effect. The viral cytopathic effect is quantified by staining followed by spectrophotometric absorbance measurements. Results are expressed as alpha reference units/mL based on the value obtained for NIH HU IF-L standard.
Compounds of the invention were tested for their ability to induce interferon in human cells using the test method described above.

Row | SMILES | Interferon (α) Induction in Human Cells (interferon (α); Dose Concentration 0.01 μg/mL) | Interferon (α) Induction in Human Cells (interferon (α); Dose Concentration 0.05 μg/mL) | Interferon (α) Induction in Human Cells (interferon (α); Dose Concentration 0.10 μg/mL) | Interferon (α) Induction in Human Cells (interferon (α); Dose Concentration 0.50 μg/mL) | Interferon (α) Induction in Human Cells (interferon (α); Dose Concentration 1.0 μg/mL) | Interferon (α) Induction in Human Cells (interferon (α); Dose Concentration 5.0 μg/mL) | melting point [°C] | Interferon (α) Induction in Human Cells (interferon (α); Dose Concentration 10.0 μg/mL) | Interferon (α) Induction in Human Cells (interferon (α); Dose Concentration 25.0 μg/mL) | Interferon (α) Induction in Human Cells (interferon (α); Dose Concentration 50.0 μg/mL)
1 | Nc1nc2ccccc2c2sc(CO)nc12 [Example 37, (4-Aminothiazolo[4,5-c]quinolin-2-yl)-methanol] | − | − | − | − | − | − | 247 to 249 |  |  | 
2 | Cc1nc2c(N)nc3ccccc3c2o1 [Example 38, 2-Methyloxazolo[4,5-c]quinolin-4-amine] | − | − | − | + | + | + | 195 to 197 |  |  | 
3 | CCc1nc2c(N)nc3ccccc3c2o1 [Example 39, 2-Ethyloxazolo [4,5-c]quinolin-4-amine] | − | − | + | + | + | + | 175 to 178 |  |  | 
4 | CCCc1nc2c(N)nc3ccccc3c2o1 [Example 43, 2-Propyloxazolo[4,5-c]quinolin-4-amine] | − | + | + | + | + | + | 159 to 160 |  |  | 
5 | CCCc1nc2c(N)nc3ccc(Br)cc3c2s1 [Example 44, 8-Bromo-2-propylthiazolo[4,5-c]quinolin-4-amine] |  |  | − | − | − | + | 177 to 180 | + | + | +
6 | CCCc1nc2c(N)nc3cc(C)ccc3c2s1 [Example 45, 7-Methyl-2-propylthiazolo[4,5-c]quinolin-4-amine] | − | + | + | + | + | + | 186 to 187 |  |  | 
7 | CCCCc1nc2c(N)nc3cc(C)ccc3c2o1 [Example 46, 2-Butyl-7-methyloxazolo[4,5-c]quinolin-4-amine] | − | + | + | + | + | + | 187 to 188 |  |  | 
8 | CCCc1nc2c(N)nc3cc(C)ccc3c2o1 [Example 47, 7-Methyl-2-propyloxazolo[4,5-c]quinolin-4-amine] | − | + | + | + | + | + | 188 to 189 |  |  | 
9 | CCCc1nc2c[n+]([O-])c3cccnc3c2s1 [Example 59, 2-Propylthiazolo[4,5-c][1,5]naphthyridine-5N-oxide] |  |  |  |  |  |  | 139 to 142 |  |  | 
10 | CCCc1nc2c[n+]([O-])ccc2s1 [Example 61, 2-Propylpyrido[3,4-d][1,3]thiazole-5N-oxide] |  |  |  |  |  |  | 137 to 139 |  |  | 
